According to PMC12051620, “Molecular basis underlying the specificity of an antagonist AA92593 for mammalian melanopsins” (The Journal of Biological Chemistry, 2025):

Molecular target: lanceolatum melanopsin F189^ECL2W/I207^5.42F mutant (Branchiostoma lanceolatum, UniProt A0A2Z4C1D4, F188W/I204F)
Assay: GsX GloSensor assay with Gsα/q11
Assay type: cell-based
Text: We assessed the effect of the antagonist on the mutants using the GsX GloSensor assay with Gsα/q11. […] Furthermore, the double substitution F189^ECL2W/I207^5.42F further increased the susceptibility of the lanceolatum melanopsin to the antagonist by ∼88% (Fig. 7, G, H, and I). The AA92593-induced inhibition of the double mutant F189^ECL2W/I207^5.42F was as efficient as that of human melanopsin (Fig. 7I). […] Taken together, the introduction of Trp-189^ECL2 and Phe-207^5.42 rendered lanceolatum melanopsin highly sensitive to the antagonist (Fig. 7, G, H, and I).
For GloSensor assay, opsins, GloSensor assay sensor (coded by pGlo-22F), and NanoBiT-tagged G proteins were transiently expressed in COS-1 cells (kindly provided from Dr David Farrens, Oregon Health and Science University) using PEI as described previously ([24], [52]). For the GsX GloSensor assay ([12], [13]), each well of a 96-well assay plate (Corning) was transfected with 50 ng opsin plasmid, 16.7 ng G protein plasmid, 50 ng pGlo-22F plasmid (Promega), and 500 ng PEI in 25 μl Opti-mem and 75 μl Dulbecco's modified Eagle's medium (D-MEM). For NanoBiT G protein dissociation assay, each well of a 96-well assay plate was transfected with 50 ng opsin plasmid, 5 ng Lg-BiT inserted Gqα (Gqα-LgBiT) plasmid, 25 ng Gβ1 plasmid, 25 ng Sm-BiT fused Gγ2 plasmid, 5 ng RIC8A plasmid, and 500 ng PEI in 25 μl Opti-mem and 75 μl D-MEM. For GFP-fluorescence microscopy, a 35-mm cell culture dish (IWAKI) was transfected with 2 μg melanopsin-GFP plasmid and 8 μg PEI in 400 μl Opti-mem and 1.2 ml D-MEM. […]
The transfected COS-1 cells were incubated at 37 °C, 5% CO2 for 2 days, and the medium was aspirated and exchanged with 50 μl of HBSS (145 mM NaCl, 10 mM D-glucose, 5 mM KCl, 1 mM MgCl2, 1.7 mM CaCl2, 1.5 mM NaHCO3, 10 mM Hepes, pH 7.4), containing 33.3, 20, 10, 2, 0.2, 0.02, 0.002, or 0 μM AA92593, 0.5% dimetyl sulfoxide (DMSO), and 4% (vol/vol) GloSensor cAMP reagent stock solution. […] Then, the cells were incubated at room temperature for 1 h, and luminescence changes were monitored. After incubation of the cells with AA92593, luminescence measurement was interrupted, the plate was ejected, and the cells were added with 50 μl of HBSS containing 0.2 μM 9-cis-retinal. […] Luminescence was measured using GM-2000 or GM-3510 microplate reader (Promega). Luminescence level of each well was measured every 30 s with integration time of 0.6 to 0.9 s. To illuminate opsins, luminescence measurement was interrupted, the plate was ejected, and the plate was illuminated by white light with CN-160 LED video light (light intensity, ∼9 mW/cm^2) (NEEWER). […] After illumination, luminescence measurement was resumed. The measured luminescence levels were normalized to the level at the starting point (time = 0 min). […]

[1] = relative peak cAMP response vs no AA92593

Sequence of lanceolatum melanopsin F189^ECL2W/I207^5.42F mutant (A0A2Z4C1D4 entry or part of it F188W/I204F): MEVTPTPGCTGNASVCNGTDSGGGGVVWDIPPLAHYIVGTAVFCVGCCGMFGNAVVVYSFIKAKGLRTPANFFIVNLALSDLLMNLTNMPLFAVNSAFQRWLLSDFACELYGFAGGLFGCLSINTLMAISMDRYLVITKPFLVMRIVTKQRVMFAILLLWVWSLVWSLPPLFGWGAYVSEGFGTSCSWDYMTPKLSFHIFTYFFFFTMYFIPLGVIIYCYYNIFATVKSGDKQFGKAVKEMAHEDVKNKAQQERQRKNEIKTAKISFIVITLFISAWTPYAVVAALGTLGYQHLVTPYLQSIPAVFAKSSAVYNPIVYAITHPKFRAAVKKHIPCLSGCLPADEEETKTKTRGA

COc1ccc(S(=O)(=O)N2CCCCC2)cc1C [AA92593]
Hill fitting parameter rate of dose-response curve: −0.84 ± 0.75 | IC50: 1400 ± 880 nM | Hill fitting parameter max of dose-response curve [1]: 107.65 ± 12.6 | Hill fitting parameter min of dose-response curve [1]: −5.22 ± 4.53
